Key:
[1] = system: PC3/PSC27 xenograft tumors; assay: PC3/PSC27 xenograft tumor terminal volume in NOD/SCID mice; format: in vivo; settings: end of 8th week
Source text: Every two weeks was a dosing cycle, and MIT (mitoxantrone) was intraperitoneally administered to the mice on the first day of the 3rd/5th/7th weeks. From the first day of the 5th week, the mice were intraperitoneally administrated with PCC1, once a week. After the 8-week course of treatment, the mice were dissected for pathological identification and expression analysis.
Chemotherapeutic drug MIT alone or together with anti-senescence drug PCC1 was used to administer mice, and after the 8th week, the tumor size of each group was compared and analyzed.
All experimental mouse experiments were carried out in strict accordance with the relevant regulations of the Institutional Animal Care and Use Committee (IACUC), Shanghai Institutes for Biological Sciences, Chinese Academy of Sciences. Immunodeficient mice (NOD-SCID mice, ICR) (body weight about 25 g) aged 6-8 weeks were used for animal experiments related to the present patent. Stromal cells PSC27 and epithelial cells PC3 were mixed at a predetermined ratio of 1:4, and each graft contained 1.25×10^6 cells for tissue remodeling. The xenograft tumors were implanted into mice by subcutaneous transplantation, and the animals were euthanized 8 weeks after the end of the transplantation surgery. Tumor volume was calculated according to the following formula: V=(π/6)×[…] (V, volume; l, length; w, width).
In a preclinical treatment trial, subcutaneously transplanted mice were fed with a standard experimental diet, after 2 weeks chemotherapy drugs mitoxantrone (MIT, dose: 0.2 mg/kg) and/or procyanidin C1 (PCC1) (500 μl, dose: 10 mg/kg) via intraperitoneal administration. The time points were: the former was administrated on the first day of the 3rd, 5th and 7th weeks, and the latter was administrated on the first day of the 5th and 7th weeks. A total of 3 cycles of MIT administration were carried out throughout the course of treatment, and each cycle lasted for 2 weeks. After the course of treatment, mouse tumors were harvested for volume measurement and histological analysis. Each mouse cumulatively received 0.6 mg/kg body weight of MIT and […] body weight of PCC1. In order to cause systemic expression of SASP factor induced by chemotherapy, MIT was administered to mice through […] according to the above steps and sequence, but the dose was reduced to 0.1 mg/kg body weight/each time (the cumulative dose of MIT received in the whole course of treatment was 0.3 mg/kg body weight) to reduce drug-related toxicity. The chemotherapy experiment ended at the end of the 8th week, and the mice were dissected immediately after sacrifice, and the xenograft tumors were collected and used for pathological system analysis.

PSC27 cells = assay: Flow cytometry of apoptosis of PSC27; format: cell-based, human
Source text: Q2, distribution area of early apoptotic cells; Q3, distribution area of late apoptotic cells.

senescent PSC27 cells = assay: Caspase 3/7 activity / drug-induced apoptosis in senescent cells; format: cell-based, human
Protocol: PSC27 cells gradually entered the senescent stage after being treated with BLEO for 12 hours under culture conditions. 50 μM PCC1 was added to the medium of senescent cells starting from day 7, NucLight Rapid Red reagent was used to label the cells, and caspase 3/7 reagent (IncuCyte) was used for apoptosis detection. Caspase 3/7 activity was detected every 4 hours (n=3).
Statistical differences are obtained by two-way ANOVA (Turkey' test).
PSC27 cells were plated in a 96-well dish, and the cells were induced to senescence under the treatment of 50 μg/mL BLEO. PCC1 and ABT263 were added at concentrations of 50 μM and 1.0 μM, respectively. Cell culture medium was supplemented with Incucyte Nuclight fast Red Reagent (Essen Bioscience) and Incucyte C-3/7 Apoptosis Reagent (Essen Bioscience). Representative field of view was selected to take pictures.

[2] = system: PC3/PSC27 xenograft tumors; assay: Disease-free survival of tumor-bearing NOD/SCID mice; format: in vivo; settings: PCC1 alone
Source text: When the tumor volume in the vehicle, MIT, PCC1 and MIT/PCC1 groups exceeds 2000 mm^3, it is considered that severe disease has occurred, and the mice need to be killed in time and the tumor bearing status should be detected. ^, P>0.05; **, P<0.01.
We next compared the survival of animals in different drug-treated groups, primarily in a time-prolonged manner to assess the consequences of tumor progression. In this preclinical cohort, animals were monitored for prostate tumor growth, and severe disease was judged to have occurred once the […] tumor burden in mice was prominent (size ≥2000 mm^3), which was a method used for assessing progression of tumors and other diseases in certain conditions.

aged C57BL/6 mice = assay: Post-mortem pathological examination of aged mice; format: in vivo; settings: end of life
Protocol: The researchers checked the cages daily and removed dead mice from the cages. Within 24 hours of animal death, cadavers (abdominal cavity, thoracic cavity, and skull) were opened and kept separately in 10% formalin for at least 7 days. Decomposed or destroyed bodies were excluded. The preserved cadavers were transported to the dedicated autopsy site for pathological examination. Tumor burden (sum of different types of tumors per mouse), disease burden (sum of different histopathological changes in major organs per mouse), severity of each lesion and inflammation (lymphocyte infiltration) were assessed.

[3] = PCC1 administered to mice treated with MIT

Q: For Oc1cc(O)c2c(c1)O[C@H](c1ccc(O)c(O)c1)[C@H](O)[C@H]2c1c(O)cc(O)c2c1O[C@H](c1ccc(O)c(O)c1)[C@H](O)[C@H]2c1c(O)cc(O)c2c1O[C@H](c1ccc(O)c(O)c1)[C@H](O)C2 [PCC1, procyanidin C1], which “reduction in tumor volume compared with MIT” value [1, 3] is on record?
A: The value was 55.2%.

Q: And the “reduction in tumor volume compared with placebo treatment” value [1, 3]?
A: The value was 74.9%.

Q: And the “reduction in tumor size compared to placebo” value ([1]; single agent, i.p.)?
A: Its value is “did not cause tumor shrinkage”.

Q: What about the “change of proliferating cells” value (PSC27 cells) of the same compound?
A: Its value is “not obvious”.

Q: What about the “proportion of apoptosis in senescent PSC27 cells” value (PSC27 cells) of the same compound?
A: The value was “significantly increased”.

Q: What about the “viability of senescent PSC27 cells” value (PSC27 cells) of the same compound?
A: Its value is “significantly reduced”.

Q: What about the “time after addition from which caspase-3/7 activity differs statistically between senescent and control group” value (senescent PSC27 cells; 50 μM PCC1) of the same compound?
A: Its value is 16 h.

Q: And the “effect on proliferating cells (apoptosis)” value (senescent PSC27 cells; proliferating PSC27)?
A: The value was “basically not targeted or affected”.

Q: What about the “survival benefit of single agent” value [2] of the same compound?
A: Its value is “only a marginal extension of survival”.

Q: What about the “prevalence of several age-related diseases and tumor burden at autopsy vs vehicle” value (aged C57BL/6 mice) of the same compound?
A: The value was “did not show statistical differences”.

— patent US12721832B2, “Anti-senescence plant polyphenol drug downregulating senescence-related secretory phenotype and use thereof” (BYHEALTH CO., LTD., priority 2021, dated 2026)
